Data taken from ChEMBL document CHEMBL5120753, “Isolation and biological activity of azocine and azocane alkaloids” (Bioorg Med Chem, 2022).
≈ marks a conversion by molar mass, not a printed value.

Tests used:
[1] = target: Replicase polyprotein 1ab (Severe acute respiratory syndrome coronavirus 2) (UniProt P0DTD1); experiment: Binding affinity to SARS-CoV-2 3C-like protease assessed as change in gibbs free energy
Plasmodium falciparum [2] = experiment: Antiplasmodial activity against chloroquine sensitive Plasmodium falciparum W2 assessed as cell growth inhibition; format: functional, organism-based
Plasmodium falciparum [3] = experiment: Antiplasmodial activity against chloroquine sensitive Plasmodium falciparum D6 assessed as cell growth inhibition; format: functional, organism-based
[4] = Toxicity in Artemia salina assessed as mortality at 10 ug/ml measured after 24 hrs by microscopic analysis; details: at 10 µg/mL, read-out: Activity
[5] = Displacement of [3H]-naloxone from opiate receptor in rat cortical brain membrane assessed as inhibition constant incubated for 30 mins by liquid scintillation counter analysis; format: cell membranes
P388 = experiment: Cytotoxicity against mouse P388 cells assessed as effective dose; format: functional; details: read-out: ED50 (the source's name)
[6] = target: T1, Xanthine dehydrogenase/oxidase (Homo sapiens, UniProt P47989); experiment: Inhibition of xanthine oxidase (unknown origin) at 10 uM using xanthine as substrate
T1 sequence (P47989 whole entry): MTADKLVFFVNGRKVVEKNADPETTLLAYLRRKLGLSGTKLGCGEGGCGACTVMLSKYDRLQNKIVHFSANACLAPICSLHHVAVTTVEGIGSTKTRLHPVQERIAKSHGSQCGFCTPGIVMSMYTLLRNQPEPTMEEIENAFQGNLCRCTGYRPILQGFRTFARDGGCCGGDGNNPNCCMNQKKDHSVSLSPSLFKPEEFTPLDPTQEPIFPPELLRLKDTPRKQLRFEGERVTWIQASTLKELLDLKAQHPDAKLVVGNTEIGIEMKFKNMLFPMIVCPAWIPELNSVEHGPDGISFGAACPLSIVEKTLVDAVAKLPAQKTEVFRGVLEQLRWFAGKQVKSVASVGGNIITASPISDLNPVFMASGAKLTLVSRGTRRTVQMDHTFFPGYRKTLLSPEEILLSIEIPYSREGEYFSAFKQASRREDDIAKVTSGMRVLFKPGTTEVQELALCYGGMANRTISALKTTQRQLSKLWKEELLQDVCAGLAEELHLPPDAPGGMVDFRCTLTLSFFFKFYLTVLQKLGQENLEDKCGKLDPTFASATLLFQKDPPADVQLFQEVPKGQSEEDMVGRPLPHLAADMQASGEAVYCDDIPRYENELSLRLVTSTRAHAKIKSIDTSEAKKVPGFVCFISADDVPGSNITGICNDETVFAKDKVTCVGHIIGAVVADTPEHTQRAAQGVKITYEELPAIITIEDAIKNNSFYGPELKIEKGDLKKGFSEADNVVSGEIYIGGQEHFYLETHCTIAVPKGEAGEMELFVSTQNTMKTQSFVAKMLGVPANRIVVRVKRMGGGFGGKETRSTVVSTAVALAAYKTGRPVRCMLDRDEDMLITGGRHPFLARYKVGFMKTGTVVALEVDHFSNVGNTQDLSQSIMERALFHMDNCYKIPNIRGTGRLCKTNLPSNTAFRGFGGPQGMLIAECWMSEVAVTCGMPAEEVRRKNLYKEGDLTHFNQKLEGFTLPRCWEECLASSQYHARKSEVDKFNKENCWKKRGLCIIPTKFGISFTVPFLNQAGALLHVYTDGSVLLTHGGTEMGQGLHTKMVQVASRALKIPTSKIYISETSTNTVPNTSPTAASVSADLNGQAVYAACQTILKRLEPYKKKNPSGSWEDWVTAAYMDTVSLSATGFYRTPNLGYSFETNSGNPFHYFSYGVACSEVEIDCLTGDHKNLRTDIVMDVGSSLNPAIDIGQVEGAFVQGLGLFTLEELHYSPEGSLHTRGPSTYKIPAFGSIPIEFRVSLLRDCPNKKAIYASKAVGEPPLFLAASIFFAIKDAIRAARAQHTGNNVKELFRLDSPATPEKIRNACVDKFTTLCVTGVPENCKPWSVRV

[7] = tested on: Mycobacterium tuberculosis; experiment: Antimycobacterial activity against Mycobacterium tuberculosis H37Rv ATCC 27294 assessed as inhibition of bacterial growth by microplate alamar blue assay; format: functional
N2a = experiment: Neuroprotective activity against paraquat induced mouse Neuro2a cells assessed as reduction in cell viability at 1 uM pretreated for 1 hr followed by paraquat addition measured after 24 hrs by MTT method relative to control; format: functional; details: time 25 hrs
[8] = Antagonist activity at alpha-adrenergic receptor in rat aortic strips assessed as receptor mediated adrenolytic activity; details: read-out: pA2 (converted)
[9] = Antagonist activity at serotonin receptor in rat aortic strips assessed as receptor mediated anti-serotoninergic activity; details: read-out: pA2 (converted)
SAOS-2 = experiment: Cytotoxicity against human SAOS-2 cells assessed as cell growth inhibition incubated for 48 hrs by microplate reader based analysis; format: functional; details: SAOS-2, 48 h
MG-63 = experiment: Cytotoxicity against human MG-63 cells assessed as cell growth inhibition incubated for 48 hrs by microplate reader based analysis; format: functional; details: MG-63, 48 h
U2OS = experiment: Cytotoxicity against human U2OS cells assessed as cell growth inhibition incubated for 48 hrs by microplate reader based analysis; format: functional
[10] = Cytotoxicity against human SOSP-9607 cells assessed as cell growth inhibition incubated for 48 hrs by microplate reader based analysis; format: functional; details: SOSP-9607, 48 h
[11] = Induction of nitric oxide production in Rabbit aortic endothelial cell at 0.1 ug/ml measured after 48 hrs by […] analysis; format: functional, Oryctolagus cuniculus; details: dose 0.1 µg/ml
B16-F10 = experiment: Induction of nitric oxide production in mouse B16-F10 cells at 1 ug/ml measured after 48 hrs by […] analysis; format: functional; details: dose 1 µg/ml
Plasmodium falciparum [12] = experiment: Antiplasmodial activity against chloroquine-resistant Plasmodium falciparum W2 assessed as cell growth inhibition incubated for 24 hrs by [3H]-hypoxanthine based scintillation counter analysis; format: functional, organism-based
Plasmodium falciparum [13] = experiment: Antiplasmodial activity against chloroquine-sensitive Plasmodium falciparum 3D7 assessed as cell growth inhibition incubated for 24 hrs by [3H]-hypoxanthine based scintillation counter analysis; format: functional, organism-based
Acetylcholinesterase = Acetylcholinesterase (Homo sapiens, UniProt P22303); experiment: Inhibition of human acetylcholinesterase
Chain of Acetylcholinesterase (P22303 whole entry): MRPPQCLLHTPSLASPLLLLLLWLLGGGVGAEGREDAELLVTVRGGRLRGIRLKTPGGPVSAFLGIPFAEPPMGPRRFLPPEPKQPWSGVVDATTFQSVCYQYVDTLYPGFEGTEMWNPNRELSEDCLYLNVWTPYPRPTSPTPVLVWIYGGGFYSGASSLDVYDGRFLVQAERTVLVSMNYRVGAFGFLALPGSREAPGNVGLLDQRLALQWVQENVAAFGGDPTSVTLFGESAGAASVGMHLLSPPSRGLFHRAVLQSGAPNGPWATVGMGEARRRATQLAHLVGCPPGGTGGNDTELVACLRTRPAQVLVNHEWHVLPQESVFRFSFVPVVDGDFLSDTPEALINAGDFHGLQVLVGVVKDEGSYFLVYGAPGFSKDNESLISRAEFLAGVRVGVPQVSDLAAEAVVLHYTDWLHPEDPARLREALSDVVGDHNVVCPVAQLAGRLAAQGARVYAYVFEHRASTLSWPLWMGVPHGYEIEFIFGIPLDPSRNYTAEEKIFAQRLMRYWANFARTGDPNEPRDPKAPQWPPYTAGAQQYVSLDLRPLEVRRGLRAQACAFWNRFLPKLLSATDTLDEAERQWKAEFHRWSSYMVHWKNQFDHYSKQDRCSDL

Cholinesterase = Cholinesterase (Homo sapiens, UniProt P06276); experiment: Inhibition of human BChE
Chain of Cholinesterase (P06276 whole entry): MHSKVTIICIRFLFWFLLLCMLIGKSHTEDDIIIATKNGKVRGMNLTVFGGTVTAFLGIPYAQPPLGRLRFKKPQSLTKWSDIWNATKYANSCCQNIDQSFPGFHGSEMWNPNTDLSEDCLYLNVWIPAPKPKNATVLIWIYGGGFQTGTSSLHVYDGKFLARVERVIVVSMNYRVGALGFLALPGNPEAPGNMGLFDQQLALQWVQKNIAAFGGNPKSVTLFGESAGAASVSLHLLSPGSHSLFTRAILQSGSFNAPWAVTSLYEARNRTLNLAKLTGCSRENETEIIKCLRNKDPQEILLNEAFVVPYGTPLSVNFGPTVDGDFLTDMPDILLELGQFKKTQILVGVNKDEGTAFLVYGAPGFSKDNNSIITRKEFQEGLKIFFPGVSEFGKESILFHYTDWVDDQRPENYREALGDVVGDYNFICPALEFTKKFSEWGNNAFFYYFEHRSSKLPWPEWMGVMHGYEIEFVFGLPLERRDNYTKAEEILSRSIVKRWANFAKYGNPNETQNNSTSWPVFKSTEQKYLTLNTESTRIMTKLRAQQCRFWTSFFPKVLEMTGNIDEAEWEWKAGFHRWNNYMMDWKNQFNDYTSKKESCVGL

[14] = Inhibition of human beta-secretase
Staphylococcus aureus = experiment: Antibacterial activity against Staphylococcus aureus assessed as zone of inhibition measured after 16 hrs by disk diffusion assay; format: functional
[15] = Toxicity in Artemia salina assessed as mortality measured after 24 hrs by microscopic analysis; details: read-out: Activity
Plasmodium falciparum [16] = experiment: Antiplasmodial activity against Plasmodium falciparum 3D7 infected in human erythrocytes assessed as cell growth inhibition incubated for 72 hrs by parasite lactate dehydrogenase assay; format: functional, organism-based; details: 3D7, 72 h
[17] = target: Prostaglandin G/H synthase 1 (Homo sapiens) (UniProt P23219); experiment: Inhibition of COX-1 (unknown origin) using arachidonic acid as substrate at 100 uM preincubated for 5 mins followed by substrate addition measured after 15 mins by absorbance based analysis relative to control; details: time 20.0 min
Chain of Prostaglandin G/H synthase 1 (Homo sapiens) (P23219 whole entry): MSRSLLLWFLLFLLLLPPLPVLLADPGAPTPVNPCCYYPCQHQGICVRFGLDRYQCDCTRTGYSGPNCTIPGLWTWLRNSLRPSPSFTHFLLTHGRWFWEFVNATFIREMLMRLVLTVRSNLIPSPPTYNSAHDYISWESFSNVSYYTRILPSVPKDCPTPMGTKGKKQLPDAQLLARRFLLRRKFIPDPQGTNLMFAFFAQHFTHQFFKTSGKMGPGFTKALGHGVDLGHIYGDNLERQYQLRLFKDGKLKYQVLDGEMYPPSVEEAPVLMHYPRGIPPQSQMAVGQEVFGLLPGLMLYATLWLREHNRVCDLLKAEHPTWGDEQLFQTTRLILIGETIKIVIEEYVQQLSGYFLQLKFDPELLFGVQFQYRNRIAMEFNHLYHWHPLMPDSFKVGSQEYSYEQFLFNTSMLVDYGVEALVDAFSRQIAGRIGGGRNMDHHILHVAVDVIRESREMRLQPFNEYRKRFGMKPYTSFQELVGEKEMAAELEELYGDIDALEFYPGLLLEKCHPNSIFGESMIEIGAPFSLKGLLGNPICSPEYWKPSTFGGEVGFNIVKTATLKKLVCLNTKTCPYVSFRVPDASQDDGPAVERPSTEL

[18] = target: Prostaglandin G/H synthase 2 (Homo sapiens) (UniProt P35354); experiment: Inhibition of COX-2 (unknown origin) using arachidonic acid as substrate at 100 uM preincubated for 5 mins followed by substrate addition measured after 15 mins by absorbance based analysis relative to control; details: time 20.0 min
Chain of Prostaglandin G/H synthase 2 (Homo sapiens) (P35354 whole entry): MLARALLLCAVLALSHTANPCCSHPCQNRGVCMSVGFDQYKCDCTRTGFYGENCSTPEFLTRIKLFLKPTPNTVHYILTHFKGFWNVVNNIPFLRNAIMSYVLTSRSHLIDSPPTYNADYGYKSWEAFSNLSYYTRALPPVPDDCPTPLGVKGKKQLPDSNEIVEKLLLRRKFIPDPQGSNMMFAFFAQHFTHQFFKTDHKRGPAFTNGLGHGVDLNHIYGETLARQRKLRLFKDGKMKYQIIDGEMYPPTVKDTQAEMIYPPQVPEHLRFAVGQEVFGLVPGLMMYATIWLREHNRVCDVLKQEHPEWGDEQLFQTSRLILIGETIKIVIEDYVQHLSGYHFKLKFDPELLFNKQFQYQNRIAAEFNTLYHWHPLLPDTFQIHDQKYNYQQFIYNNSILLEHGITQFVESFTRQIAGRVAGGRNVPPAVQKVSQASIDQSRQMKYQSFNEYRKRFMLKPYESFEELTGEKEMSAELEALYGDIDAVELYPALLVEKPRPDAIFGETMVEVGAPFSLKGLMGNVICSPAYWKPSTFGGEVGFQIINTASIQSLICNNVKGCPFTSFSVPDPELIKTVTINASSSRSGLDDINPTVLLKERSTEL

[19] = target: Polyunsaturated fatty acid 5-lipoxygenase (Homo sapiens) (UniProt P09917); experiment: Inhibition of 5-LOX (unknown origin) using arachidonic acid as substrate at 100 uM preincubated for 5 mins followed by substrate addition measured after 15 mins by absorbance based analysis relative to control; details: time 20.0 min
Chain of Polyunsaturated fatty acid 5-lipoxygenase (Homo sapiens) (P09917 whole entry): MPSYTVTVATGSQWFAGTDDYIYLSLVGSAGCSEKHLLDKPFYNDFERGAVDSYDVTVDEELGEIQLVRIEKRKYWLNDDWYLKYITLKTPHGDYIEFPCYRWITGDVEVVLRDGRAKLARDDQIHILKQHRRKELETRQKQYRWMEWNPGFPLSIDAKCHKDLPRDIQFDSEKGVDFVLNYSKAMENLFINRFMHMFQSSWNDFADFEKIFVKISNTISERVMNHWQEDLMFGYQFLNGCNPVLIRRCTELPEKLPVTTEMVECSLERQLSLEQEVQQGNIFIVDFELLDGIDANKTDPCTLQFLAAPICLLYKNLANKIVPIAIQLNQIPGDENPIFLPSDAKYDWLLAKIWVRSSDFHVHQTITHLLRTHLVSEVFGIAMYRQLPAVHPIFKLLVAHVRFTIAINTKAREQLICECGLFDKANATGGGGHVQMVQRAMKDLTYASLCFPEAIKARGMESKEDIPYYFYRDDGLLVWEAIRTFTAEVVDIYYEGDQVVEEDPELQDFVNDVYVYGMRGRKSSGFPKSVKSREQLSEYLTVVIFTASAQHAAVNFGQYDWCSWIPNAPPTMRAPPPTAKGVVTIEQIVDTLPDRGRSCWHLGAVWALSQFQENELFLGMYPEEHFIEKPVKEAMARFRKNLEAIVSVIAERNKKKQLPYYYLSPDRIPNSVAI

Leishmania infantum = experiment: Antileishmanial activity against Leishmania infantum PB75 assessed as cell growth inhibition measured after 72 hrs by MTT assay; format: functional
KB = experiment: Cytotoxicity against human KB cells assessed as cell growth inhibition; format: functional, cell-based
[20] = Cytotoxicity against vincristine resistant human VJ300 cells assessed as cell growth inhibition; format: functional, cell-based; details: VJ-300
[21] = Toxicity in mouse assessed as lethal dose; details: in vivo
[22] = Antioxidant activity assessed as DPPH radical scavenging activity; format: functional
[23] = Inhibition of urease (unknown origin); parameters: species or system Homo sapiens
[24] = target: T1, Xanthine dehydrogenase/oxidase; experiment: Inhibition of xanthine oxidase (unknown origin)

Structure (SMILES): O=C1NCCc2c[nH]c3ccc4c(c23)[C@H]1[C@@H](c1ccc2c(c1)OCO2)O4
- deltaG [1]: -9.1 kcal/mol
- IC50 (Plasmodium falciparum [2]): 4.41 µg/mL (≈ 12.7 µM)
- IC50 (Plasmodium falciparum [3]): 3.93 µg/mL (≈ 11.3 µM)

Structure (SMILES): COc1cc([C@H]2Oc3ccc4[nH]cc5c4c3[C@H]2C(=O)NCC5=O)ccc1O
- mortality at 24 h, 10 ug/ml [4]: 90%

Structure (SMILES): C=C1c2[nH]c3ccccc3c2CN2CC[C@H]1/C(=C\C)C2 [APPARICINE]
- Ki [5]: 2.65 µM
- EC50 (P388): 3.8 µg/mL (≈ 14.4 µM)
- IC50 [6]: 0.65 µM

Structure (SMILES): C/C=C1/CN2CC[C@@H]1[C@](CO)(C(=O)OC)c1[nH]c3ccccc3c1C2
- MIC [7]: > 128 µg/mL

Structure (SMILES): CC1(C)/C=C\N2C(=O)[C@]3(O)[C@@H](O)CCN3C(=O)[C@@H]2Cc2c1[nH]c1ccccc21
- Activity (N2a): 30.3%

Structure (SMILES): CN1CCc2ccccc2-c2cc(O)c(O)cc2C1
- Kb [8]: 0.02 µM
- Kb [9]: 3.02 µM

Structure (SMILES): COC(=O)C1=C2Nc3c(O)cccc3[C@]23CC[N+]2(C)C[C@H](C(C)=O)[C@H]1C[C@H]32 (stereo partly drawn)
- IC50 (SAOS-2): 9.2 µM
- IC50 (MG-63): 9.2 µM
- IC50 (U2OS): 9.2 µM
- IC50 [10]: 9.2 µM

Structure (SMILES): C=C1c2[nH]c3ccc(OC)cc3c2C2[C@@H](CC)C1CCN2C (stereo partly drawn)
- Activity [11]: 20.9 µM
- Activity (B16-F10): 41.1 µM
- IC50 (Plasmodium falciparum [12]): 0.75 µg/mL (≈ 2.53 µM)
- IC50 (Plasmodium falciparum [13]): 11.9 µg/mL (≈ 40.1 µM)
- IC50 (Acetylcholinesterase): 279 µM
- IC50 (Cholinesterase): 24 µM
- IC50 [14]: 180 µM

Structure (SMILES): COc1cc([C@H]2Oc3ccc4[nH]cc5c4c3[C@@H]2C(=O)NCC5)ccc1O
- IC50 (Plasmodium falciparum [2]): > 10 µg/mL
- IC50 (Plasmodium falciparum [3]): > 10 µg/mL
- diameter of the inhibition zone (DIZ) (Staphylococcus aureus): 19 mm
- mortality at 24 h [15]: 90%

Structure (SMILES): CCC(=O)Oc1ccc([C@H]2Oc3ccc4[nH]cc5c4c3[C@@H]2C(=O)NCC5)cc1OC
- IC50 (Plasmodium falciparum [16]): 36.6 µM

Structure (SMILES): CC[C@H]1[C@@H]2CCN3CC[C@@]4(C(=C2C(=O)OC)Nc2ccccc24)[C@@H]13 [TUBOTAIWINE]
- Ki [5]: 1.65 µM
- inhibition [17]: 60.8%
- inhibition [18]: 90.4%
- inhibition [19]: 69.5%
- GI50 (Leishmania infantum): 5.9 µg/mL (≈ 18.2 µM)
- MIC [7]: 100 µg/mL (≈ 308 µM)

Structure (SMILES): COC(=O)[C@@]12COC[C@@H](O)[C@@]3(CO)[C@@H]1CCN3Cc1c2[nH]c2ccccc12
- IC50 (KB): 7.76 µg/mL (≈ 20.8 µM)
- IC50 [20]: 7.33 µg/mL (≈ 19.7 µM)

Structure (SMILES): C[N@@+]12CC[C@]34c5ccccc5N5/C=C6\[C@@H]7N(/C=C(\[C@H]53)[C@H](C[C@@H]41)/C(=C\CO)C2)c1ccccc1[C@@]71CC[N@@+]2(C)C/C(=C/CO)[C@H]6C[C@@H]12
- LD [21]: 0.8 mg/kg

Structure (SMILES): C/C=C1\CN2CC[C@@H]1[C@](CO)(C(=O)OC)c1[nH]c3ccccc3c1C2
- inhibition [17]: 49.4%
- inhibition [18]: 63.7%
- inhibition [19]: 60.8%
- IC50 [22]: 24.5 µM
- IC50 [23]: 32.6 µM
- IC50 [24]: > 100 µM

Structure (SMILES): COc1cc([C@H]2Oc3ccc4[nH]cc5c4c3[C@@H]2C(=O)NCC5)ccc1OC(=O)C(C)(C)C
- IC50 (Plasmodium falciparum [16]): 123 µM
